Data: patent US5538882A, “Variant-type carbohydrate hydrolase, variant gene of the enzyme and method for producing oligosaccharide using the enzyme” (priority 1993, dated 1996)

Legend:
Details in all cases: substrate 3KB-G5-CNP, hydrolysis
[1] = biological target: Saccharomycopsis fibuligera α-amylase (Sfamy) variant SfamyY83W, Y83W, SEQ ID NO: 4 (Saccharomycopsis fibuligera, UniProt P21567, Y109W)
Protocol: (§1) Furthermore, using a substrate with both its non-reducing end terminus and its reducing end terminus modified, i.e. 3KB-G5 -CNP (chloronitrophenyl maltopentaose wherein the hydroxyl group at position 3 of the glucose residue at the non-reducing end terminus is ketobutylated; manufactured by Ono Pharmaceutical Company), the hydrolysis activities of the wild-type enzyme and the variant-type enzymes were determined. 3KB-G5 -CNP cannot function as a substrate for transglycosylation reaction because of the modification of both of the termini, and therefore, only the hydrolysis activity can be assayed.

[2] = biological target: Saccharomycopsis fibuligera α-amylase (Sfamy) variant SfamyY83L, Y83L, SEQ ID NO: 6 (Saccharomycopsis fibuligera, UniProt P21567, Y109L)
Protocol: as §1

[3] = biological target: Saccharomycopsis fibuligera α-amylase (Sfamy) variant SfamyY83F, Y83F, SEQ ID NO: 2 (Saccharomycopsis fibuligera, UniProt P21567, A249P/Y109F)
Protocol: as §1

[4] = biological target: T1, Saccharomycopsis fibuligera α-amylase (Sfamy), wild type (Saccharomycopsis fibuligera, UniProt P21567)
T1 sequence (P21567 27-494): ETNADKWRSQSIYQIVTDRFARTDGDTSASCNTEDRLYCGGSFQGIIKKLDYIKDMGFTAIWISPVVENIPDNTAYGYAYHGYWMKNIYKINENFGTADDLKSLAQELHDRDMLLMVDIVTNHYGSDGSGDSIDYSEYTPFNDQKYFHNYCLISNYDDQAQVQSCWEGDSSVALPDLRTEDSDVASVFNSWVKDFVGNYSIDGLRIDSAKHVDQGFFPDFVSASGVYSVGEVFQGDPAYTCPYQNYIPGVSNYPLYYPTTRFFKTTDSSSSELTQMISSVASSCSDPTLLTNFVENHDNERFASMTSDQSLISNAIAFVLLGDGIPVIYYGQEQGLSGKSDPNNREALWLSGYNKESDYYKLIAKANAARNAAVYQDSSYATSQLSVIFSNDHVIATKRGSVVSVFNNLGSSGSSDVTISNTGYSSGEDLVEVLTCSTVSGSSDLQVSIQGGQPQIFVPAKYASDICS
Protocol: as §1

[5] = biological target: Saccharomycopsis fibuligera α-amylase (Sfamy) variant SfamyY83N, Y83N, SEQ ID NO: 8 (Saccharomycopsis fibuligera, UniProt P21567, Y109N)
Saccharomycopsis fibuligera α-amylase (Sfamy) variant SfamyY83N, Y83N, SEQ ID NO: 8, sequence (P21567 27-494 Y109N): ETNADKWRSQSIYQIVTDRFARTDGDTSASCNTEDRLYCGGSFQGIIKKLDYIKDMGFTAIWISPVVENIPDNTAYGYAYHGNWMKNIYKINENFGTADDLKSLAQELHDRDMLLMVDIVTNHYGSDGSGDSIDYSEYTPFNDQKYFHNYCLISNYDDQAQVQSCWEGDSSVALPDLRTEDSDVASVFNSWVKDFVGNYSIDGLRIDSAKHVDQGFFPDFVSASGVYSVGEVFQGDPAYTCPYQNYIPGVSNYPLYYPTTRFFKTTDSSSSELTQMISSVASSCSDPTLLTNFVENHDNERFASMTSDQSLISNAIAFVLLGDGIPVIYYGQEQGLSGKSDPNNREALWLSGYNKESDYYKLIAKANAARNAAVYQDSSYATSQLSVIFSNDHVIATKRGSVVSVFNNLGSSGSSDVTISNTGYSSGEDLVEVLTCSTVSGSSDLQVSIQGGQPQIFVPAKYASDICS
Protocol: as §1

Saccharomycopsis fibuligera α-amylase (Sfamy) variant SfamyY83W, Y83W, SEQ ID NO: 4, sequence (P21567 27-494 Y109W): as the sequence (P21567 27-494 Y109N) above, with N83W counted along it
Saccharomycopsis fibuligera α-amylase (Sfamy) variant SfamyY83L, Y83L, SEQ ID NO: 6, sequence (P21567 27-494 Y109L): as the sequence (P21567 27-494 Y109N) above, with N83L counted along it
Saccharomycopsis fibuligera α-amylase (Sfamy) variant SfamyY83F, Y83F, SEQ ID NO: 2, sequence (P21567 27-494 Y109F/A249P): as the sequence (P21567 27-494 Y109N) above, with N83F, A223P counted along it

CC(=O)CC1OC[C@H]2O[C@H](O[C@H]3[C@H](O)[C@@H](O)[C@@H](O[C@H]4[C@H](O)[C@@H](O)[C@@H](O[C@H]5[C@H](O)[C@@H](O)[C@@H](O[C@H]6[C@H](O)[C@@H](O)[C@H](Oc7ccc([N+](=O)[O-])cc7Cl)O[C@@H]6CO)O[C@@H]5CO)O[C@@H]4CO)O[C@@H]3CO)[C@H](O)[C@@H](O)[C@@H]2O1 (stereo partly drawn) [3KB-G5 -CNP]
Km [1]: 150 µM | kcat [1]: 2.17 s⁻¹ | kcat/Km [1]: 14500 M⁻¹ s⁻¹ | Km [2]: 120 µM | kcat [2]: 0.183 s⁻¹ | kcat/Km [2]: 1550 M⁻¹ s⁻¹ | Km [3]: 130 µM | kcat [3]: 2.5 s⁻¹ | kcat/Km [3]: 20000 M⁻¹ s⁻¹ | Km [4]: 60 µM | kcat [4]: 15.3 s⁻¹ | kcat/Km [4]: 250000 M⁻¹ s⁻¹ | Km [5]: 190 µM | kcat [5]: 0.267 s⁻¹ | kcat/Km [5]: 1430 M⁻¹ s⁻¹
